Data as given in ChEMBL document CHEMBL1201862, “PubChem BioAssay data set” (2004).
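Step 1: Grow cells in 96-well plates. Step 2: Expose to compound for 48 hours at 5 concentrations. Step 3: Interpolate endpoints linearly; if unreached, use highest concentration. GI50 is the concentration that inhibits growth by half.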 Calls of active or inactive are those of the source. Cut-off read from the data, not from the text of the source: active = GI50 up to about 1.1 µM and inactive = higher.

Key:
Assay in all cases: NCI tumour cell line growth inhibition, 48 h
786-0 = system: 786-0
A549 = system: A549
ACHN = system: ACHN
CCRF-CEM = system: CCRF-CEM
HT-29 = system: HT-29
IGROV-1 = system: IGROV-1
NCI-H23 = system: NCI-H23
NCI-H522 = system: NCI-H522
OVCAR-4 = system: OVCAR-4
OVCAR-8 = system: OVCAR-8
SF-295 = system: SF-295
SF-539 = system: SF-539
SK-MEL-2 = system: SK-MEL-2
SNB-19 = system: SNB-19
U-251 = system: U-251

Measured: GI50

Cc1ccc(S(=O)(=O)n2c(-c3ccccc3)c(-c3ccccc3)c3ccccc32)cc1
inactive: 786-0 > 100 µM | A549 > 100 µM | ACHN > 100 µM | CCRF-CEM > 100 µM | HT-29 > 100 µM | IGROV-1 > 100 µM | NCI-H23 17.7 µM | NCI-H522 > 100 µM | OVCAR-4 > 100 µM | OVCAR-8 > 100 µM | SF-295 97.5 µM | SF-539 > 100 µM | SK-MEL-2 > 100 µM | SNB-19 > 100 µM | U-251 > 100 µM

CCOC(=O)C1Sc2ccccc2N=C1C (centres undefined)
inactive: 786-0 > 100 µM | A549 > 100 µM | ACHN > 100 µM | HT-29 > 100 µM | IGROV-1 > 100 µM | NCI-H23 > 100 µM | NCI-H522 > 100 µM | OVCAR-4 > 100 µM | OVCAR-8 > 100 µM | SF-295 > 100 µM | SF-539 > 100 µM | SK-MEL-2 > 100 µM | SNB-19 > 100 µM | U-251 > 100 µM

O=C(CCc1n[nH]c(=S)o1)Nc1cc(Cl)c(Cl)cc1Cl
inactive: 786-0 22.5 µM | A549 67.8 µM | ACHN 40.5 µM | CCRF-CEM 31.6 µM | HT-29 25.8 µM | IGROV-1 34.6 µM | NCI-H23 > 100 µM | NCI-H522 71.9 µM | OVCAR-4 > 100 µM | OVCAR-8 51.2 µM | SF-295 > 100 µM | SF-539 52.7 µM | SNB-19 > 100 µM | U-251 35.2 µM

CC(C)CC(NC(=O)OC(C)(C)C)C(=O)Nc1ccc(Nc2nc(F)nc(-c3c4ccccc4c4n3CCS4)n2)cc1 (centres undefined)
inactive: 786-0 19.8 µM | A549 48.4 µM | ACHN 24.3 µM | CCRF-CEM 3.65 µM | HT-29 19.2 µM | IGROV-1 24 µM | NCI-H23 18.7 µM | NCI-H522 15.3 µM | OVCAR-8 22 µM | SF-295 20.9 µM | SF-539 20.6 µM | SK-MEL-2 18.2 µM | SNB-19 18.2 µM | U-251 18.8 µM

O=C(COc1ccccc1Cl)N1N=C(c2ccc(Cl)cc2)CC1(O)c1ccccc1 (centres undefined)
inactive: 786-0 > 100 µM | A549 > 100 µM | ACHN > 100 µM | HT-29 > 100 µM | IGROV-1 > 100 µM | NCI-H23 > 100 µM | NCI-H522 > 100 µM | OVCAR-4 > 100 µM | OVCAR-8 > 100 µM | SF-295 > 100 µM | SF-539 > 100 µM | SK-MEL-2 > 100 µM | SNB-19 > 100 µM | U-251 > 100 µM

CCCN(CCC)C(=O)Cc1c2n(c3ccccc13)CCCc1ccccc1-2
inactive: 786-0 16.9 µM | A549 13.8 µM | ACHN 12.6 µM | CCRF-CEM 17.4 µM | HT-29 13.2 µM | NCI-H23 13 µM | NCI-H522 12.6 µM | OVCAR-4 13.3 µM | OVCAR-8 16.3 µM | SF-295 10.6 µM | SF-539 14.9 µM | SK-MEL-2 13.1 µM | SNB-19 14.6 µM | U-251 15.7 µM

COc1cc(C(C#N)NNc2nc(C)cc(O)n2)cc(OC)c1OC (centres undefined)
inactive: 786-0 > 100 µM | A549 > 100 µM | ACHN > 100 µM | CCRF-CEM > 100 µM | HT-29 > 100 µM | IGROV-1 > 100 µM | NCI-H23 > 100 µM | NCI-H522 > 100 µM | OVCAR-4 > 100 µM | OVCAR-8 > 100 µM | SF-295 > 100 µM | SF-539 > 100 µM | SK-MEL-2 > 100 µM | U-251 > 100 µM

CCOc1ccc([Se][Se]c2ccc(OCC)cc2)cc1
inactive: 786-0 > 100 µM | A549 > 100 µM | IGROV-1 94.4 µM | NCI-H23 11.5 µM | NCI-H522 46 µM | OVCAR-4 > 100 µM | OVCAR-8 > 100 µM | SF-295 > 100 µM | SF-539 > 100 µM | SK-MEL-2 > 100 µM | SNB-19 > 100 µM | U-251 26.9 µM

Cc1ccc(NC(=O)C(=O)Cc2nc3ccccc3o2)c(C)c1
inactive: 786-0 > 100 µM | A549 > 100 µM | ACHN > 100 µM | HT-29 > 100 µM | IGROV-1 > 100 µM | NCI-H23 > 100 µM | OVCAR-4 > 100 µM | OVCAR-8 > 100 µM | SF-295 > 100 µM | SF-539 > 100 µM | SK-MEL-2 > 100 µM | SNB-19 > 100 µM | U-251 > 100 µM

O=C1CCC2CCc3cccc4oc1c2c34 (centres undefined)
inactive: 786-0 > 100 µM | A549 > 100 µM | ACHN > 100 µM | CCRF-CEM > 100 µM | HT-29 > 100 µM | IGROV-1 > 100 µM | NCI-H23 > 100 µM | OVCAR-4 > 100 µM | OVCAR-8 > 100 µM | SF-295 10.6 µM | SF-539 > 100 µM | SNB-19 > 100 µM | U-251 > 100 µM

O=[PH](O)c1ccsc1
inactive: 786-0 > 100 µM | A549 > 100 µM | ACHN > 100 µM | CCRF-CEM > 100 µM | HT-29 55 µM | IGROV-1 > 100 µM | NCI-H23 > 100 µM | NCI-H522 > 100 µM | OVCAR-8 > 100 µM | SF-539 > 100 µM | U-251 > 100 µM

O=C1NCCS(=O)(=O)N2CCC[C@@H]12
inactive: 786-0 > 100 µM | A549 > 100 µM | ACHN > 100 µM | CCRF-CEM > 100 µM | HT-29 > 100 µM | IGROV-1 > 100 µM | NCI-H23 > 100 µM | NCI-H522 > 100 µM | OVCAR-4 > 100 µM | OVCAR-8 > 100 µM | SF-295 > 100 µM | SF-539 > 100 µM | SNB-19 > 100 µM | U-251 > 100 µM

COc1ccc(C=C2C(=O)OC(C)(C)OC2=O)cc1OC
inactive: 786-0 > 100 µM | A549 > 100 µM | ACHN > 100 µM | CCRF-CEM > 100 µM | HT-29 > 100 µM | IGROV-1 > 100 µM | NCI-H23 > 100 µM | NCI-H522 > 100 µM | OVCAR-4 > 100 µM | OVCAR-8 > 100 µM | SF-295 > 100 µM | SK-MEL-2 > 100 µM | SNB-19 > 100 µM | U-251 > 100 µM

O=C(O)CCSC(=O)Nc1cccc([N+](=O)[O-])c1
inactive: 786-0 > 100 µM | A549 > 100 µM | ACHN 52.7 µM | CCRF-CEM > 100 µM | HT-29 87.1 µM | IGROV-1 72.6 µM | NCI-H23 > 100 µM | OVCAR-4 60.8 µM | OVCAR-8 > 100 µM | SF-295 > 100 µM | SF-539 > 100 µM | SK-MEL-2 > 100 µM | SNB-19 > 100 µM | U-251 > 100 µM

O=C(CN(c1ccccc1)c1ccccc1)n1nnc2ccccc21
inactive: 786-0 39.2 µM | A549 28.6 µM | ACHN 36.5 µM | CCRF-CEM 35 µM | HT-29 44.1 µM | IGROV-1 52.4 µM | NCI-H23 45.1 µM | NCI-H522 21.4 µM | OVCAR-8 39.3 µM | SF-295 74.8 µM | SF-539 24.4 µM | SK-MEL-2 30.6 µM | SNB-19 24.5 µM | U-251 26.1 µM
